Source: patent US20040097595A1, “Phthalamide derivatives, insecticides for agricultural and horticultural use and method for application thereof” (priority 2001, published 2004)

Tests used:
Assay type in all cases: in vivo
[1] = test system: Common Cutworm (Spodoptera litura); assay: Test Example 2: insecticidal effect on common cutworm, cabbage leaf immersion; conditions: cabbage leaf immersed, second-instar larvae, eight days after inoculation, 25° C.
Excerpt: (§1) Insecticidal Effect on Common Cutworm (Spodoptera litura)
A piece of cabbage leaf (cultivar; Shikidori) was immersed for about 30 seconds in a liquid chemical prepared by diluting a preparation containing each compound listed in Table 1 or 2 as an active ingredient to adjust the prescribed concentration. After air-dryness, it was placed in a plastic Petri dish with a diameter of 9 cm and inoculated with second-instar larvae of common cutworm, after which the dish was closed and then allowed to stand in a room thermostatted at 25° C. Eight days after the inoculation, the dead and alive were counted. The mortality was calculated according to the following equation and the insecticidal effect was judged according to the criterion shown in Test Example 1. The test was carried out with triplicate groups of 10 insects. [formula]

[2] = test system: Diamond Back Moth (Plutella xylostella); assay: Test Example 1: insecticidal effect on diamond back moth, Chinese cabbage seedling with eggs immersed in liquid chemical; conditions: eggs on Chinese cabbage seedling immersed about 30 seconds, six days after immersion, 25° C.
Excerpt: Insecticidal Effect on Diamond Back Moth (Plutella xylostella)
Adult diamond back moths were released and allowed to oviposit on a Chinese cabbage seedling. Two days after the release, the seedling having the eggs deposited thereon was immersed for about 30 seconds in a liquid chemical prepared by diluting a preparation containing each compound listed in Table 1 or 2 as an active ingredient to adjust the prescribed concentration. After air-dryness, it was allowed to stand in a room thermostatted at 25° C. Six days after the immersion, the hatched insects were counted. The mortality was calculated according to the following equation and the insecticidal effect was judged according to the criterion shown below. The test was carried out with triplicate groups of 10 insects. [formula]

[3] = test system: Common Cutworm (Spodoptera litura); assay: Comparative Test Example 1: insecticidal effect on common cutworm, treated synthetic diet; conditions: 192 h, synthetic diet treated with 0.5 ml, third-instar larvae, eight days after inoculation
Method: as §1
A synthetic diet packed in a plastic Petri dish was treated with 0.5 ml of a liquid chemical prepared by diluting a preparation containing compound 1-51 as an active ingredient to adjust the prescribed concentration, by adding the liquid chemical dropwise to the synthetic diet. The synthetic diet was inoculated with third-instar larvae of common cutworm, after which the dish was closed and then allowed to stand in a room thermostatted at 25° C. Eight days after the inoculation, the dead and alive were counted, and the mortality was calculated according to the following equation. The test was carried out with triplicate groups of 10 insects. [formula]
The compounds described in JP-A-2001-131141 were used as comparative compounds as follows: […]

[4] = test system: Common Cutworm (Spodoptera litura); assay: Comparative Example 2: insecticidal effect on common cutworm by soil treatment for cabbage; set-up: concentration or dose not given beside the values; conditions: granules in planting holes; leaf cut eleven days after transplanting; first-instar larvae; three days after inoculation
Method: Insecticidal Effect on Common Cutworm (Spodoptera litura) by Soil Treatment for Cabbage
At the time of trans-planting cabbage plants (cultivar: YR Seitoku), planting holes were treated with granules prepared from compound 1-51 according to Formulation Example. Eleven days after the transplanting, a leaf was cut off from the cabbage plant, placed in a plastic Petri dish, and then inoculated with 20 first-instar larvae of common cutworm. Thereafter, the dish was closed and then allowed to stand in a room thermostatted at 25° C. Three days after the inoculation, the dead and alive were counted and the mortality was calculated in the same manner as in Comparative Test Example 1.

| SMILES | Test Example 2 insecticidal effect (mortality grade) ([1]; 5 ppm) | Test Example 2 insecticidal effect (mortality grade) ([1]; 50 ppm) | Test Example 1 insecticidal effect (mortality grade) ([2]; 5 ppm) | Test Example 1 insecticidal effect (mortality grade) ([2]; 50 ppm) | mortality at 5 ppm [3] [%] | mortality at 50 ppm [3] [%] | mortality at 500 ppm [3] [%] | Mortality, Highest leaf [4] [%] | Mortality, Second highest leaf [4] [%] | Mortality, Third highest leaf [4] [%] |
| --- | --- | --- | --- | --- | --- | --- | --- | --- | --- | --- |
| CC(C)(CS(C)(=O)=O)NC(=O)c1c(I)cccc1C(=O)Nc1ccc(OC(F)(F)C(F)OC(F)(F)C(F)(F)C(F)(F)F)cc1Cl (stereo not shown) [Compound 1-83] | A (Mortality 100%) | A (Mortality 100%) | A (Mortality 100%) | A (Mortality 100%) |  |  |  |  |  |  |
| CSCC(C)(C)NC(=O)c1c(I)cccc1C(=O)Nc1ccc(OC(F)(F)C(F)OC(F)(F)C(F)(F)C(F)(F)F)c(Cl)c1Cl (stereo not shown) [Compound 1-84] | E (Mortality 49-0%) | A (Mortality 100%) | E (Mortality 49-0%) | A (Mortality 100%) |  |  |  |  |  |  |
| C[S+]([O-])CC(C)(C)NC(=O)c1c(I)cccc1C(=O)Nc1ccc(OC(F)(F)C(F)OC(F)(F)C(F)(F)C(F)(F)F)c(Cl)c1Cl (stereo not shown) [Compound 1-85] | E (Mortality 49-0%) | A (Mortality 100%) | A (Mortality 100%) | A (Mortality 100%) |  |  |  |  |  |  |
| CC(C)(CS(C)(=O)=O)NC(=O)c1c(I)cccc1C(=O)Nc1ccc(OC(F)(F)C(F)OC(F)(F)C(F)(F)C(F)(F)F)c(Cl)c1Cl (stereo not shown) [Compound 1-86] | D (Mortality 79-50%) | A (Mortality 100%) | A (Mortality 100%) | A (Mortality 100%) |  |  |  |  |  |  |
| CSCC(C)(C)NC(=O)c1c(I)cccc1C(=O)Nc1ccc(Oc2c(Cl)cc(C(F)(F)F)c(F)c2Cl)cc1Cl [Compound 1-93] | E (Mortality 49-0%) | C (Mortality 89-80%) | A (Mortality 100%) | A (Mortality 100%) |  |  |  |  |  |  |
| CSCC(C)(C)NC(=O)c1c(I)cccc1C(=O)Nc1ccc(Oc2ccc(C(F)(F)F)cn2)cc1Cl [Compound 1-94] | E (Mortality 49-0%) | A (Mortality 100%) | A (Mortality 100%) | A (Mortality 100%) |  |  |  |  |  |  |
| CSCC(C)(C)NC(=O)c1c(I)cccc1C(=O)Nc1ccc(Oc2ncc(C(F)(F)F)cc2Cl)cc1Cl [Compound 1-95] | E (Mortality 49-0%) | A (Mortality 100%) | A (Mortality 100%) | A (Mortality 100%) |  |  |  |  |  |  |
| C[S+]([O-])CC(C)(C)NC(=O)c1c(I)cccc1C(=O)Nc1ccc(Oc2ncc(C(F)(F)F)cc2Cl)cc1Cl (stereo not shown) [Compound 1-96] | E (Mortality 49-0%) | A (Mortality 100%) | A (Mortality 100%) | A (Mortality 100%) |  |  |  |  |  |  |
| CC(C)(CS(C)(=O)=O)NC(=O)c1c(I)cccc1C(=O)Nc1ccc(Oc2ncc(C(F)(F)F)cc2Cl)cc1Cl [Compound 1-97] | E (Mortality 49-0%) | A (Mortality 100%) | A (Mortality 100%) | A (Mortality 100%) |  |  |  |  |  |  |
| CSCC(C)(C)NC(=O)c1c(I)cccc1C(=O)Nc1ccc(Oc2ncc(C(F)(F)F)cc2Cl)c(Cl)c1Cl [Compound 1-98] | E (Mortality 49-0%) | A (Mortality 100%) | A (Mortality 100%) | A (Mortality 100%) |  |  |  |  |  |  |
| CC(C)(CS(C)(=O)=O)NC(=O)c1c(I)cccc1C(=O)Nc1ccc(Oc2ncc(C(F)(F)F)cc2Cl)c(Cl)c1Cl [Compound 1-100] | E (Mortality 49-0%) | A (Mortality 100%) | A (Mortality 100%) | A (Mortality 100%) |  |  |  |  |  |  |
| CSCC(C)(C)NC(=O)c1c(I)cccc1C(=O)Nc1ccc(SC(F)F)cc1Cl [Compound 1-107] | E (Mortality 49-0%) | E (Mortality 49-0%) | A (Mortality 100%) | A (Mortality 100%) |  |  |  |  |  |  |
| CSCC(C)(C)NC(=O)c1c(I)cccc1C(=O)Nc1ccc(S(=O)(=O)C(F)(F)F)cc1Cl [Compound 1-111] | E (Mortality 49-0%) | A (Mortality 100%) | A (Mortality 100%) | A (Mortality 100%) |  |  |  |  |  |  |
| CSCC(C)(C)NC(=O)c1c(I)cccc1C(=O)Nc1ccc(OC(F)(F)F)cc1Cl [Compound A, N^1-[2-chloro-4-(trifluoromethoxy)phenyl]-N^2-(1,1-dimethyl-2-methylthioethyl)-3-iodophthalamide] |  |  |  |  | 5 | 100 | 100 | 0 | 95 | 100 |
| CC(C)(CS(C)(=O)=O)NC(=O)c1c(I)cccc1C(=O)Nc1ccc(OC(F)(F)F)cc1Cl [Compound B, N^1-[2-chloro-4-(trifluoromethoxy)phenyl]-3-iodo-N^2-(1,1-dimethyl-2-methylsulfonylethyl)phthalamide] |  |  |  |  | 0 | 100 | 100 | 0 | 50 | 100 |
